Data reported in ChEMBL document CHEMBL1137656, “Effects of serum on in vitro susceptibility testing of echinocandins” (Antimicrob Agents Chemother, 2007).
Numbered stars: 1 amine (or outer) side, 2 acyl side, 3 side chain; on linkers, the order of the positions; unused ones are H or OH. Bridge positions count the residues as written; N and C are the ends. Square brackets hold non-standard residues; d marks the D form. Peptide text beside a SMILES is read from it. * marks the point of attachment. hTyr(3S-OH,4S-OH,3'-OSO3H) = N[C@H](C(=O)O)[C@H](O)[C@@H](O)c1ccc(O)c(OS(=O)(=O)O)c1; pTerphenylCO(4''-OnC5H11) = CCCCCOc1ccc(-c2ccc(-c3ccc(C(=O)*)cc3)cc2)cc1; Orn(4R-OH,5R-OH) = O=C([C@H](C[C@@H](O)[C@@H](O)N[*:3])N[*:1])[*:2]; hTyr(3S-OH,4S-OH) = N[C@H](C(=O)O)[C@H](O)[C@@H](O)c1ccc(O)cc1; Pro(3S-OH,4S-Me) = C[C@H]1CN[C@H](C(=O)O)[C@H]1O; X1 = CCCCCOc1ccc(-c2cc(-c3ccc(C(=O)*)cc3)no2)cc1; Gln(3R-OH) = NC(=O)C[C@@H](O)[C@H](N)C(=O)O; Hyp = O=C(O)[C@@H]1C[C@@H](O)CN1

Experiments:
Type in all cases: functional
Candida parapsilosis [1] = assay: Antifungal activity against Candida parapsilosis isolate 0014-074 after 24 hrs by CLSI M27-A2 broth microdilution method in presence of RPMI 1640 medium; settings: Lodderomyces parapsilosis, isolate 0014-074, 24 h
Candida parapsilosis [2] = assay: Ratio of MIC50 for Candida parapsilosis isolate 0014-074 in presence of 50% human serum to MIC50 for Candida parapsilosis isolate 0014-074 in presence of RPMI 1640 medium
Aspergillus fumigatus [3] = assay: Antifungal activity against Aspergillus fumigatus isolate 0020-018 after 24 hrs by CLSI M38-A broth microdilution method in presence of 50% human serum; settings: isolate 0020-018, 24 h
Aspergillus fumigatus [4] = assay: Ratio of MIC50 for Aspergillus fumigatus isolate 0002-020 in presence of 50% human serum to MIC50 for Aspergillus fumigatus isolate 0002-020 in presence of RPMI 1640 medium
Candida tropicalis [5] = assay: Ratio of MIC50 for Candida tropicalis isolate 0050-028 in presence of 50% human serum to MIC50 for Candida tropicalis isolate 0050-028 in presence of RPMI 1640 medium
Aspergillus fumigatus [6] = assay: Antifungal activity against Aspergillus fumigatus isolate 0020-018 after 24 hrs by CLSI M38-A broth microdilution method in presence of RPMI 1640 medium; settings: isolate 0020-018, 24 h
Clavispora lusitaniae [7] = assay: Ratio of MIC50 for Candida lusitaniae isolate 0013-002 in presence of 50% human serum to MIC50 for Candida lusitaniae isolate 0013-002 in presence of RPMI 1640 medium
Candida parapsilosis [8] = assay: Ratio of MIC50 for Candida parapsilosis isolate 0036-030 in presence of 50% human serum to MIC50 for Candida parapsilosis isolate 0036-030 in presence of RPMI 1640 medium
Candida parapsilosis [9] = assay: Ratio of MIC50 for Candida parapsilosis isolate 0026-003 in presence of 50% human serum to MIC50 for Candida parapsilosis isolate 0026-003 in presence of RPMI 1640 medium
Aspergillus niger = assay: Ratio of MIC50 for Aspergillus niger isolate 0001-073 in presence of 50% human serum to MIC50 for Aspergillus niger isolate 0001-073 in presence of RPMI 1640 medium
Aspergillus fumigatus [10] = assay: Antifungal activity against Aspergillus fumigatus isolate 0002-020 after 24 hrs by CLSI M38-A broth microdilution method in presence of RPMI 1640 medium; settings: isolate 0002-020, 24 h
Candida parapsilosis [11] = assay: Antifungal activity against Candida parapsilosis ATCC 22019 after 24 hrs by CLSI M27-A2 broth microdilution method in presence of 50% human serum; settings: Lodderomyces parapsilosis, ATCC 22019, 24 h
Candida tropicalis [12] = assay: Antifungal activity against Candida tropicalis isolate 0022-021 after 24 hrs by CLSI M27-A2 broth microdilution method in presence of RPMI 1640 medium; settings: isolate 0022-021, 24 h
Pichia kudriavzevii [13] = assay: Antifungal activity against Candida krusei ATCC 6258 after 24 hrs by CLSI M27-A2 broth microdilution method in presence of 50% human serum; settings: ATCC 6258, 24 h
Candida parapsilosis [14] = assay: Antifungal activity against Candida parapsilosis isolate 0014-074 after 24 hrs by CLSI M27-A2 broth microdilution method in presence of 50% human serum; settings: Lodderomyces parapsilosis, isolate 0014-074, 24 h
Candida parapsilosis [15] = assay: Ratio of MIC50 for Candida parapsilosis isolate 0011-013 in presence of 50% human serum to MIC50 for Candida parapsilosis isolate 0011-013 in presence of RPMI 1640 medium
Candida parapsilosis [16] = assay: Antifungal activity against Candida parapsilosis isolate 0026-003 after 24 hrs by CLSI M27-A2 broth microdilution method in presence of 50% human serum; settings: Lodderomyces parapsilosis, isolate 0026-003, 24 h
Aspergillus flavus [17] = assay: Antifungal activity against Aspergillus flavus isolate 0001-061 after 24 hrs by CLSI M38-A broth microdilution method in presence of 50% human serum; settings: isolate 0001-061, 24 h
Aspergillus fumigatus [18] = assay: Antifungal activity against Aspergillus fumigatus isolate 0002-021 after 24 hrs by CLSI M38-A broth microdilution method in presence of RPMI 1640 medium; settings: isolate 0002-021, 24 h
Candida tropicalis [19] = assay: Antifungal activity against Candida tropicalis isolate 0050-028 after 24 hrs by CLSI M27-A2 broth microdilution method in presence of RPMI 1640 medium; settings: isolate 0050-028, 24 h
Pichia kudriavzevii [20] = assay: Ratio of MIC50 for Candida krusei ATCC 6258 in presence of 50% human serum to MIC50 for Candida krusei ATCC 6258 in presence of RPMI 1640 medium
Aspergillus fumigatus [21] = assay: Antifungal activity against Aspergillus fumigatus isolate 0002-0016 after 24 hrs by CLSI M38-A broth microdilution method in presence of RPMI 1640 medium; settings: isolate 0002-0016, 24 h
Candida parapsilosis [22] = assay: Antifungal activity against Candida parapsilosis isolate 0011-013 after 24 hrs by CLSI M27-A2 broth microdilution method in presence of RPMI 1640 medium; settings: Lodderomyces parapsilosis, isolate 0011-013, 24 h
Candida tropicalis [23] = assay: Antifungal activity against Candida tropicalis isolate 0022-021 after 24 hrs by CLSI M27-A2 broth microdilution method in presence of 50% human serum; settings: isolate 0022-021, 24 h
Candida parapsilosis [24] = assay: Antifungal activity against Candida parapsilosis isolate 0011-013 after 24 hrs by CLSI M27-A2 broth microdilution method in presence of 50% human serum; settings: Lodderomyces parapsilosis, isolate 0011-013, 24 h
Clavispora lusitaniae [25] = assay: Antifungal activity against Candida lusitaniae isolate 0013-002 after 24 hrs by CLSI M27-A2 broth microdilution method in presence of 50% human serum; settings: isolate 0013-002, 24 h
Pichia kudriavzevii [26] = assay: Ratio of MIC50 for Candida krusei isolate 0013-054 in presence of 50% human serum to MIC50 for Candida krusei isolate 0013-054 in presence of RPMI 1640 medium
Candida parapsilosis [27] = assay: Antifungal activity against Candida parapsilosis isolate 0036-030 after 24 hrs by CLSI M27-A2 broth microdilution method in presence of 50% human serum; settings: Lodderomyces parapsilosis, isolate 0036-030, 24 h
Nakaseomyces glabratus = assay: Antifungal activity against Candida glabrata isolate 0022-012 after 24 hrs by CLSI M27-A2 broth microdilution method in presence of RPMI 1640 medium; settings: isolate 0022-012, 24 h
Aspergillus flavus [28] = assay: Antifungal activity against Aspergillus flavus isolate 0001-033 after 24 hrs by CLSI M38-A broth microdilution method in presence of RPMI 1640 medium; settings: isolate 0001-033, 24 h
Aspergillus fumigatus [29] = assay: Ratio of MIC50 for Aspergillus fumigatus isolate […] in presence of 50% human serum to MIC50 for Aspergillus fumigatus isolate 0020-018 in presence of RPMI 1640 medium
Candida albicans = assay: Antifungal activity against Candida albicans isolate 0012-025 after 24 hrs by CLSI M27-A2 broth microdilution method in presence of 50% human serum; settings: isolate 0012-025, 24 h

SMILES | MIC50 (Candida parapsilosis [1]) | Ratio (Candida parapsilosis [2]) | MIC50 (Aspergillus fumigatus [3]) | Ratio (Aspergillus fumigatus [4]) | Ratio (Candida tropicalis [5]) | MIC50 (Aspergillus fumigatus [6]) | Ratio (Clavispora lusitaniae [7]) | Ratio (Candida parapsilosis [8]) | Ratio (Candida parapsilosis [9]) | Ratio (Aspergillus niger) | MIC50 (Aspergillus fumigatus [10]) | MIC50 (Candida parapsilosis [11]) | MIC50 (Candida tropicalis [12]) | MIC50 (Pichia kudriavzevii [13]) | MIC50 (Candida parapsilosis [14]) | Ratio (Candida parapsilosis [15]) | MIC50 (Candida parapsilosis [16]) | MIC50 (Aspergillus flavus [17]) | MIC50 (Aspergillus fumigatus [18]) | MIC50 (Candida tropicalis [19]) | further results
CCCCCOc1ccc(-c2cc(-c3ccc(C(=O)N[C@H]4C[C@@H](O)[C@@H](O)NC(=O)[C@@H]5[C@@H](O)[C@@H](C)CN5C(=O)[C@H]([C@H](O)CC(N)=O)NC(=O)[C@H]([C@H](O)[C@@H](O)c5ccc(O)c(OS(=O)(=O)O)c5)NC(=O)[C@@H]5C[C@@H](O)CN5C(=O)[C@H]([C@@H](C)O)NC4=O)cc3)no2)cc1 [MICAFUNGIN] (X1-[Orn(4R-OH,5R-OH)]T[Hyp][hTyr(3S-OH,4S-OH,3'-OSO3H)][Gln(3R-OH)][Pro(3S-OH,4S-Me)]; lactam 1-C) | 0.0156 µg/mL | 32 | 0.5 µg/mL | 128 | 128 | 0.0156 µg/mL | 128 | 256 | 128 | 128 | 0.004 µg/mL | 32 µg/mL | 0.0156 µg/mL | 8 µg/mL | 0.5 µg/mL | 256 | 64 µg/mL | 128 µg/mL | 0.001 µg/mL | 0.25 µg/mL | Ratio (Pichia kudriavzevii [20]): 128; MIC50 (Aspergillus fumigatus [21]): 0.0313 µg/mL; MIC50 (Candida parapsilosis [22]): 0.0156 µg/mL; MIC50 (Candida tropicalis [23]): 2 µg/mL; MIC50 (Candida parapsilosis [24]): 4 µg/mL; MIC50 (Clavispora lusitaniae [25]): 1 µg/mL; Ratio (Pichia kudriavzevii [26]): 64; MIC50 (Candida parapsilosis [27]): 128 µg/mL; MIC50 (Nakaseomyces glabratus): 0.0156 µg/mL; MIC50 (Aspergillus flavus [28]): 0.125 µg/mL; Ratio (Aspergillus fumigatus [29]): 32; MIC50 (Candida albicans): 1 µg/mL
CC[C@H](C)C[C@H](C)CCCCCCCCC(=O)N[C@H]1C[C@@H](O)[C@@H](NCCN)NC(=O)[C@@H]2[C@@H](O)CCN2C(=O)[C@H]([C@H](O)CCN)NC(=O)[C@H]([C@H](O)[C@@H](O)c2ccc(O)cc2)NC(=O)[C@@H]2C[C@@H](O)CN2C(=O)[C@H]([C@@H](C)O)NC1=O [CASPOFUNGIN] | 0.25 µg/mL | 2 | 128 µg/mL | 256 | 4 | 16 µg/mL | 1 | 8 | 8 | 512 | 0.5 µg/mL | 8 µg/mL | 0.5 µg/mL | 4 µg/mL | 0.5 µg/mL | 4 | 8 µg/mL | 128 µg/mL | 1 µg/mL | 0.5 µg/mL | Ratio (Pichia kudriavzevii [20]): 8; MIC50 (Aspergillus fumigatus [21]): 8 µg/mL; MIC50 (Candida parapsilosis [22]): 0.25 µg/mL; MIC50 (Candida tropicalis [23]): 0.5 µg/mL; MIC50 (Candida parapsilosis [24]): 1 µg/mL; MIC50 (Clavispora lusitaniae [25]): 0.25 µg/mL; Ratio (Pichia kudriavzevii [26]): 4; MIC50 (Candida parapsilosis [27]): 8 µg/mL; MIC50 (Nakaseomyces glabratus): 0.5 µg/mL; MIC50 (Aspergillus flavus [28]): 32 µg/mL; Ratio (Aspergillus fumigatus [29]): 8; MIC50 (Candida albicans): 0.25 µg/mL
CCCCCOc1ccc(-c2ccc(-c3ccc(C(=O)N[C@H]4C[C@@H](O)[C@@H](O)NC(=O)[C@@H]5[C@@H](O)[C@@H](C)CN5C(=O)[C@H]([C@@H](C)O)NC(=O)[C@H]([C@H](O)[C@@H](O)c5ccc(O)cc5)NC(=O)[C@@H]5C[C@@H](O)CN5C(=O)[C@H]([C@@H](C)O)NC4=O)cc3)cc2)cc1 [ANIDULAFUNGIN] ({pTerphenylCO(4''-OnC5H11)}-[Orn(4R-OH,5R-OH)]T[Hyp][hTyr(3S-OH,4S-OH)]T[Pro(3S-OH,4S-Me)]; lactam 1-C) | 0.004 µg/mL | 64 | 128 µg/mL | 64 | 128 | 0.5 µg/mL | 512 | 128 | 64 | 512 | 0.008 µg/mL | 64 µg/mL | 0.0156 µg/mL | 2 µg/mL | 0.25 µg/mL | 64 | 128 µg/mL | 128 µg/mL | 0.002 µg/mL | 1 µg/mL | Ratio (Pichia kudriavzevii [20]): 16; MIC50 (Aspergillus fumigatus [21]): 2 µg/mL; MIC50 (Candida parapsilosis [22]): 0.0313 µg/mL; MIC50 (Candida tropicalis [23]): 2 µg/mL; MIC50 (Candida parapsilosis [24]): 2 µg/mL; MIC50 (Clavispora lusitaniae [25]): 1 µg/mL; Ratio (Pichia kudriavzevii [26]): 32; MIC50 (Candida parapsilosis [27]): 128 µg/mL; MIC50 (Nakaseomyces glabratus): 0.0313 µg/mL; MIC50 (Aspergillus flavus [28]): 4 µg/mL; Ratio (Aspergillus fumigatus [29]): 256; MIC50 (Candida albicans): 0.25 µg/mL
